Assay results as given in patent US20230340011A1 (Asteroid Therapeutics, priority 2022, published 2023).

Key:
[1] = biological target: LXRβ (Homo sapiens (Human), UniProt P55055); experiment: In vitro assay LXRβ: PathHunter NHR CHO cells, LXRβ / Steroid Receptor Co-activator Peptide enzyme fragment complementation; assay type: cell-based; details: PathHunter NHR CHO cells, full-length human LXRβ and SRCP, chemiluminescent signal; read-out: LXRβ PPI
Summary of the method: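 Co-activator recruitment measured by chemiluminescence after signal generation. The CHO line carries full-length human LXRβ tagged with ProLink and an SRCP–enzyme acceptor fusion in the nucleus; cells sat overnight at 37° C before testing, in charcoal-dextran filtered serum medium with 1% final vehicle.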

[2] = biological target: SREBP-2 (Homo sapiens (Human), UniProt Q12772); experiment: In vitro assay SREBP-2: PathHunter U2OS SREBP-2 Nuclear Translocation Cell Line, U18666A-stimulated; assay type: cell-based; details: PathHunter U2OS SREBP-2 nuclear translocation cells, U18666A 10 μM, overnight (16 hours)

LXRβ, sequence (P55055 whole entry, the tested form may be a part): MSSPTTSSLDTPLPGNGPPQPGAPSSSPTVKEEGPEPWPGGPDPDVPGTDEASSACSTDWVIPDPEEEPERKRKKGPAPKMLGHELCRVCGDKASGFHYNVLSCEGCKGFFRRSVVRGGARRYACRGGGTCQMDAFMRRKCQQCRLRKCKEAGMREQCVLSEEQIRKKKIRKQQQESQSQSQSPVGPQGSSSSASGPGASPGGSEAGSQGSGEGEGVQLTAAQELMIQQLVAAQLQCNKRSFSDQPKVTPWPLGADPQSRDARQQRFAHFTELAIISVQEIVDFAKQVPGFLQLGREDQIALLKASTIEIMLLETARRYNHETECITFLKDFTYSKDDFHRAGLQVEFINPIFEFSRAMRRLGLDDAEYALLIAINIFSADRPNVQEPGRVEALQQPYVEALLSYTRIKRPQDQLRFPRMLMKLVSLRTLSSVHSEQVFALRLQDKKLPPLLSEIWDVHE

C[C@H](CCC(=O)N1CCN(C(=O)c2cn[nH]c2)CC1)[C@H]1CC[C@H]2[C@@H]3CC=C4C[C@@H](O)CC[C@]4(C)[C@H]3CC[C@]12C [Example 310, (R)-1-(4-(1H-pyrazole-4-carbonyl)piperazin-1-yl)-4-((3S,8S,9S,10R,13R,14S,17R)-3-hydroxy-10,13-dimethyl-2,3,4,7,8,9,10,11,12,13,14,15,16,17-tetradecahydro-1H-cyclopenta[a]phenanthren-17-yl)pentan-1-one]
EC50 [1]: > 10 µM
IC50 [2]: < 250 nM

C[C@H](CCC(=O)N1CCN(C(=O)C(C)(C)O)C[C@@H]1C)[C@H]1CC[C@H]2[C@@H]3CC=C4C[C@@H](O)CC[C@]4(C)[C@H]3CC[C@]12C [Example 653, (R)-4-((3S,8S,9S,10R,13R,14S,17R)-3-hydroxy-10,13-dimethyl-2,3,4,7,8,9,10,11,12,13,14,15,16,17-tetradecahydro-1H-cyclopenta[a]phenanthren-17-yl)-1-((S)-4-(2-hydroxy-2-methylpropanoyl)-2-methylpiperazin-1-yl)pentan-1-one]
EC50 [1]: > 10 µM
IC50 [2]: < 250 nM

C[C@H](CCC(=O)N1CCN(c2ccn(C3CC3)c2)CC1)[C@H]1CC[C@H]2[C@@H]3CC=C4C[C@@H](O)CC[C@]4(C)[C@H]3CC[C@]12C [Example 516, (R)-1-(4-(1-cyclopropyl-1H-pyrrol-3-yl)piperazin-1-yl)-4-((3S,8S,9S,10R,13R,14S,17R)-3-hydroxy-10,13-dimethyl-2,3,4,7,8,9,10,11,12,13,14,15,16,17-tetradecahydro-1H-cyclopenta[a]phenanthren-17-yl)pentan-1-one]
EC50 [1]: > 10 µM
IC50 [2]: < 250 nM

COc1cncnc1N1CCN(C(=O)CC[C@@H](C)[C@H]2CC[C@H]3[C@@H]4CC=C5C[C@@H](O)CC[C@]5(C)[C@H]4CC[C@]23C)CC1 [Example 204, (4R)-4-[(1R,3aS,3bS,7S,9aR,9bS,11aR)-7-hydroxy-9a,11a-dimethyl-1H,2H,3H,3aH,3bH,4H,6H,7H,8H,9H,9aH,9bH,10H,11H,11aH-cyclopenta[a]phenanthren-1-yl]-1-[4-(5-methoxypyrimidin-4-yl)piperazin-1-yl]pentan-1-one]
EC50 [1]: > 10 µM
IC50 [2]: < 250 nM

C[C@H](CCC(=O)N1CCC(C)(CNC(=O)C(C)(C)O)CC1)[C@H]1CC[C@H]2[C@@H]3CC=C4C[C@@H](O)CC[C@]4(C)[C@H]3CC[C@]12C [Example 365, 2-hydroxy-N-((1-((R)-4-((3S,8S,9S,10R,13R,14S,17R)-3-hydroxy-10,13-dimethyl-2,3,4,7,8,9,10,11,12,13,14,15,16,17-tetradecahydro-1H-cyclopenta[a]phenanthren-17-yl)pentanoyl)-4-methylpiperidin-4-yl)methyl)-2-methylpropanamide]
EC50 [1]: > 10 µM
IC50 [2]: < 250 nM

CNC(=O)N1CCN(C(=O)CC[C@@H](C)[C@H]2CC[C@H]3[C@@H]4CC=C5C[C@@H](O)CC[C@]5(C)[C@H]4CC[C@]23C)CC1 [Example 337, 4-[(4R)-4-[(1R,3aS,3bS,7S,9aR,9bS,11aR)-7-hydroxy-9a,11a-dimethyl-1H,2H,3H,3aH,3bH,4H,6H,7H,8H,9H,9aH,9bH,10H,11H,11aH-cyclopenta[a]phenanthren-1-yl]pentanoyl]-N-methylpiperazine-1-carboxamide]
EC50 [1]: > 10 µM
IC50 [2]: < 250 nM

C[C@H](CCC(=O)N1CCN(C(=O)OC2CC2)[C@@H](C)C1)[C@H]1CC[C@H]2[C@@H]3CC=C4C[C@@H](O)CC[C@]4(C)[C@H]3CC[C@]12C [Example 570, Cyclopropyl(S)-4-((R)-4-((3S,8S,9S,10R,13R,14S,17R)-3-hydroxy-10,13-dimethyl-2,3,4,7,8,9,10,11,12,13,14,15,16,17-tetradecahydro-1H-cyclopenta[a]phenanthren-17-yl)pentanoyl)-2-methylpiperazine-1-carboxylate]
EC50 [1]: > 10 µM
IC50 [2]: < 250 nM

Cc1ccnc(N2CCN(C(=O)CC[C@@H](C)[C@H]3CC[C@H]4[C@@H]5CC=C6C[C@@H](O)CC[C@]6(C)[C@H]5CC[C@]34C)CC2)c1 [Example 658, (R)-4-((3S,8S,9S,10R,13R,14S,17R)-3-hydroxy-10,13-dimethyl-2,3,4,7,8,9,10,11,12,13,14,15,16,17-tetradecahydro-1H-cyclopenta[a]phenanthren-17-yl)-1-(4-(4-methylpyridin-2-yl)piperazin-1-yl)pentan-1-one]
EC50 [1]: > 10 µM
IC50 [2]: < 250 nM

C[C@H](CCc1ncccc1OCCO)[C@H]1CC[C@H]2[C@@H]3CC=C4C[C@@H](O)CC[C@]4(C)[C@H]3CC[C@]12C [Example 246]
EC50 [1]: 0.25 to 1 µM
IC50 [2]: < 250 nM

CCN(C(=O)C(=O)O[C@@H](C)[C@H]1CC[C@H]2[C@@H]3CC=C4C[C@@H](O)CC[C@]4(C)[C@H]3CC[C@]12C)C(C)C [Example 197, (S)-1-((3S,8S,9S,10R,13S,14S,17S)-3-hydroxy-10,13-dimethyl-2,3,4,7,8,9,10,11,12,13,14,15,16,17-tetradecahydro-1H-cyclopenta[a]phenanthren-17-yl)ethyl 2-(ethyl(isopropyl)amino)-2-oxoacetate]
EC50 [1]: 0.25 to 1 µM
IC50 [2]: < 250 nM

C[C@H](CCC(=O)N1CCN(C(=O)C(C)(C)O)CC1)[C@H]1CC[C@H]2[C@@H]3CC=C4C[C@@H](O)CC[C@]4(C)[C@H]3CC[C@]12C [Example 336, (R)-4-((3S,8S,9S,10R,13R,14S,17R)-3-hydroxy-10,13-dimethyl-2,3,4,7,8,9,10,11,12,13,14,15,16,17-tetradecahydro-1H-cyclopenta[a]phenanthren-17-yl)-1-(4-(2-hydroxy-2-methylpropanoyl)piperazin-1-yl)pentan-1-one]
EC50 [1]: > 10 µM
IC50 [2]: < 250 nM

Cc1cc(N2CCN(C(=O)CC[C@@H](C)[C@H]3CC[C@H]4[C@@H]5CC=C6C[C@@H](O)CC[C@]6(C)[C@H]5CC[C@]34C)CC2)sn1 [Example 497, (R)-4-((3S,8S,9S,10R,13R,14S,17R)-3-hydroxy-10,13-dimethyl-2,3,4,7,8,9,10,11,12,13,14,15,16,17-tetradecahydro-1H-cyclopenta[a]phenanthren-17-yl)-1-(4-(3-methylisothiazol-5-yl)piperazin-1-yl)pentan-1-one]
EC50 [1]: > 10 µM
IC50 [2]: < 250 nM

Cc1cccc(OC[C@@H](C)[C@H]2CC[C@H]3[C@@H]4CC=C5C[C@@H](O)CC[C@]5(C)[C@H]4CC[C@]23C)n1 [Example 264, (1R,3aS,3bS,7S,9aR,9bS,11aS)-9a,11a-dimethyl-1-[(2S)-1-[(6-methylpyridin-2-yl)oxy]propan-2-yl]-1H,2H,3H,3aH,3bH,4H,6H,7H,8H,9H,9aH,9bH,10H,11H,11aH-cyclopenta[a]phenanthren-7-ol]
EC50 [1]: > 10 µM
IC50 [2]: 250 to 1000 nM

C[C@H](CCC(=O)N(C)C)[C@H]1CC[C@H]2[C@@H]3CC=C4C[C@@](C)(O)CC[C@]4(C)[C@H]3CC[C@]12C [Example 120, (R)-4-((3S,8S,9S,10R,13R,14S,17R)-3-hydroxy-3,10,13-trimethyl-2,3,4,7,8,9,10,11,12,13,14,15,16,17-tetradecahydro-1H-cyclopenta [a]phenanthren-17-yl) -N,N-dimethylpentanamide]
EC50 [1]: > 10 µM
IC50 [2]: 1000 to 10000 nM

CCC1(O)CCN(C(=O)C(=O)O[C@@H](C)[C@H]2CC[C@H]3[C@@H]4CC=C5C[C@@H](O)CC[C@]5(C)[C@H]4CC[C@]23C)CC1 [Example 200, (S)-1-((3S,8S,9S,10R,13S,14S,17S)-3-hydroxy-10,13-dimethyl-2,3,4,7,8,9,10,11,12,13,14,15,16,17-tetradecahydro-1H-cyclopenta[a]phenanthren-17-yl)ethyl 2-(4-ethyl-4-hydroxypiperidin-1-yl)-2-oxoacetate]
EC50 [1]: 1 to 10 µM
IC50 [2]: < 250 nM

Cc1ncccc1O[C@@H](C)[C@H]1CC[C@H]2[C@@H]3CC=C4C[C@@H](O)CC[C@]4(C)[C@H]3CC[C@]12C [Example 274, (1S,3aS,3bS,7S,9aR,9bS,11aS)-9a,11a-dimethyl-1-[(1S)-1-[(2-methylpyridin-3-yl)oxy]ethyl]-1H,2H,3H,3aH,3bH,4H,6H,7H,8H,9H,9aH,9bH,10H,11H,11aH-cyclopenta[a]phenanthren-7-ol]
EC50 [1]: > 10 µM
IC50 [2]: 250 to 1000 nM

C[C@H](CCC(=O)N1CCN(C(=O)N2CCC[C@@H]2C)CC1)[C@H]1CC[C@H]2[C@@H]3CC=C4C[C@@H](O)CC[C@]4(C)[C@H]3CC[C@]12C [Example 666, (R)-4-((3S,8S,9S,10R,13R,14S,17R)-3-hydroxy-10,13-dimethyl-2,3,4,7,8,9,10,11,12,13,14,15,16,17-tetradecahydro-1H-cyclopenta[a]phenanthren-17-yl)-1-(4-((S)-2-methylpyrrolidine-1-carbonyl)piperazin-1-yl)pentan-1-one]
EC50 [1]: > 10 µM
IC50 [2]: < 250 nM

C[C@H](CCC(=O)N1CCN(C(=O)c2cn(C)nn2)[C@@H](C)C1)[C@H]1CC[C@H]2[C@@H]3CC=C4C[C@@H](O)CC[C@]4(C)[C@H]3CC[C@]12C [Example 574, (R)-4-((3S,8S,9S,10R,13R,14S,17R)-3-hydroxy-10,13-dimethyl-2,3,4,7,8,9,10,11,12,13,14,15,16,17-tetradecahydro-1H-cyclopenta[a]phenanthren-17-yl)-1-((S)-3-methyl-4-(1-methyl-1H-1,2,3-triazole-4-carbonyl)piperazin-1-yl)pentan-1-one]
EC50 [1]: > 10 µM
IC50 [2]: < 250 nM

C=CCN1C[C@H]2CON(C(=O)CC[C@@H](C)[C@H]3CC[C@H]4[C@@H]5CC=C6C[C@@H](O)CC[C@]6(C)[C@H]5CC[C@]34C)[C@H]2C1 [Example 44, (R)-1-((3aR,6aR)-5-allylhexahydro-1H-pyrrolo[3,4-c]isoxazol-1-yl)-4-((3S,8S,9S,10R,13R,14S,17R)-3-hydroxy-10,13-dimethyl-2,3,4,7,8,9,10,11,12,13,14,15,16,17-tetradecahydro-1H-cyclopenta[a]phenanthren-17-yl)pentan-1-one]
EC50 [1]: > 10 µM
IC50 [2]: 250 to 1000 nM
